In US8450357B2, “Compositions comprising an aryl pyrazole and/or a formamidine, methods and uses thereof” (Merial Limited, priority 2008, dated 2013):
Read-outs that look alike come from different tables or passages of the source.

Columns and labels:
Format in all cases: in vivo
[1] = system: adult brown dog ticks (Rhipicephalus sanguineus); assay: Tick DMSO contact assay, Compound 1 with amitraz, Example 15; conditions: for Synergistic Ratio (EC50): EC50 alone divided by EC50 with Amitraz (12.5 ppm); for Synergistic Ratio (EC90): EC90 alone divided by EC90 with Amitraz (12.5 ppm)
Protocol: (§1) Dosages were serially diluted using this same formulation.
Scintillation vials were treated with commercial and experimental compounds using the same procedure described in Example 12 above. The treated vials were used to determine the contact toxicity of compounds against adult brown dog ticks (Rhipicephalus sanguineus). The ticks were supplied by Ecto Services Inc. Henderson, N.C.
Unfed adult ticks were released into a metal pan and 10 living ticks were aspirated into each vial. […] Two replicates were tested for each treatment and the results were averaged. Ticks were stimulated by gently exhaling in the vials. Within the same time period, the addition of amitraz to an equal dosage of compound 1 increased mean mortality.

Ctenocephalides felis = assay: Study D: flea efficacy of Compound 1 and fipronil in cats
Protocol: A fourth clinical study was conducted to determine the efficacy of topically administered Compound 1 and fipronil against induced infections of Ctenocephalides felis in cats. Twenty four cats (17 males, 7 females) were included in the study. Six replicates of four cats each were formed based on decreasing Day −5 flea counts. Within replicates, cats were randomly allocated to Treatment Groups 1, 2, 3 or 4, respectively, by using a die: Group 1—untreated (vehicle control); Group 2—Compound 1 (10 mg/kg); Group 3—Compound 1 (20 mg/kg); Group 4—fipronil (10 mg/kg). Treatment was performed by topical administration of the formulations in the midline of the neck, between the base of the skull and the shoulder blades in a single spot after parting the hair. Animals were observed hourly for approximately four hours following treatment.
The cats were infested with approximately 100 Ct. felis fleas each during acclimation on Day −6 for allocation purposes, and on Days −1, 14, 21, 28, 35 and 42 for treatment efficacy evaluation purposes. The fleas were removed by combing each cat approximately 24 hours following each infestation except for the Day −1 infestation which was followed by flea removal and count on Day 1 (˜48 hours following infestation).

fleas = assay: Efficacy of combination of fipronil and amitraz against fleas on dogs; conditions: topical
Protocol: (§2) A fipronil formulation (commercial product) was prepared and stored separately from amitraz. Amitraz was formulated with the same carrier. Both parts, fipronil and amitraz in solvent(s) were stored separately and applied simultaneously. Amounts applied were calculated to keep dose at 10% (w/v) each in final formulation and 10 mg/kg BW of actives in amount applied.
The amitraz and fipronil composition described in Example 10 were used in this study. […] Treatment was applied by parting the hair on the midline of the neck, between the base of the skull and the shoulder blades, and applying the formulation directly onto the skin.

[2] = system: adult Rhipicephalus sanguineus ticks; assay: whole plant or invertebrate; conditions: for Synergistic Ratio (EC50): EC50 alone divided by EC50 with Amitraz (12.5 ppm); for Synergistic Ratio (EC90): EC90 alone divided by EC90 with Amitraz (12.5 ppm); for mortality at 0.0016 ppm / mortality at 0.006 ppm / mortality at 0.025 ppm / mortality at 0.1 ppm / mortality at 0.4 ppm / mortality at 1.6 ppm / mortality at 6.25 ppm / mortality at 25 ppm: Rhipicephalus sanguineus
Excerpt: as §1

ticks = assay: Efficacy of combination of fipronil with amitraz against ticks on dogs; conditions: 10 mg/kg BW of actives, topical
Protocol: as §2
In brief, treatment was applied by parting the hair on the midline of the neck, between the base of the skull and the shoulder blades, and applying the formulation directly onto the skin.

[3] = 6 h, read-out: 6 hour % Mortality Rep 1
[4] = 6 h, read-out: 6 hour % Mortality Rep 2
[5] = 6 h, read-out: 6 hour Avg. % Mortality
[6] = 24 h, read-out: 24 hour % Mortality Rep 1
[7] = 24 h, read-out: 24 hour % Mortality Rep 2
[8] = 24 h, read-out: 24 hour Avg. % Mortality
[9] = 48 h, read-out: 48 hour % Mortality Rep 1
[10] = 48 h, read-out: 48 hour % Mortality Rep 2
[11] = 48 h, read-out: 48 hour Avg. % Mortality

With `Cc1c([S+]([O-])C(F)(Cl)Cl)c(C#N)nn1-c1c(F)cc(C(F)(F)F)cc1Cl` (stereo not drawn) [Compound 1, 3-cyano-1-(2-chloro-6-fluoro-4-trifluoromethylphenyl)-4-dichlorofluoromethylsulfinyl-5-methyl-1H-pyrazole] the “Synergistic Ratio (EC50)” value ([1]; 6 hour Eval) was 11, the “Synergistic Ratio (EC90)” value ([1]; 6 hour Eval) was over 5.72 and the “Synergistic Ratio (EC50)” value ([1]; 24 hour Eval) was 135.3. The “Synergistic Ratio (EC90)” value ([1]; 24 hour Eval) was 111.4, the “Synergistic Ratio (EC50)” value ([1]; 48 hour Eval) was 133.1 and the “Synergistic Ratio (EC90)” value ([1]; 48 hour Eval) was 50.3. The “% Efficacy against fleas” value (Ctenocephalides felis; Day 1, 10 mg/kg) was 99.84%, the “% Efficacy against fleas” value (Ctenocephalides felis; Day 1, 20 mg/kg) was 100% and the “% Efficacy against fleas” value (Ctenocephalides felis; Day 15, 10 mg/kg) was 99.81%. For the same compound, the “% Efficacy against fleas” value (Ctenocephalides felis; Day 15, 20 mg/kg) was 100%, the “% Efficacy against fleas” value (Ctenocephalides felis; Day 22, 10 mg/kg) was 100% and the “% Efficacy against fleas” value (Ctenocephalides felis; Day 22, 20 mg/kg) was 100%. The “% Efficacy against fleas” value (Ctenocephalides felis; Day 29, 10 mg/kg) was 100%, the “% Efficacy against fleas” value (Ctenocephalides felis; Day 29, 20 mg/kg) was 100% and the “% Efficacy against fleas” value (Ctenocephalides felis; Day 36, 10 mg/kg) was 99.43%. The “% Efficacy against fleas” value (Ctenocephalides felis; Day 36, 20 mg/kg) was 100%, the “% Efficacy against fleas” value (Ctenocephalides felis; Day 43, 10 mg/kg) was 97.28% and the “% Efficacy against fleas” value (Ctenocephalides felis; Day 43, 20 mg/kg) was 100%.

For `N#Cc1nn(-c2c(Cl)cc(C(F)(F)F)cc2Cl)c(N)c1[S+]([O-])C(F)(F)F` (stereo not drawn) [fipronil, 5-amino-3-cyano-1-(2,6-dichloro-4-trifluoromethylphenyl)-4-trifluoromethylsulfinylpyrazole], the Efficacy against fleas (fleas; 2 days after treatment) was 100%, the Efficacy against fleas (fleas; 16 days after treatment) was 100% and the Efficacy against fleas (fleas; 23 days after treatment) was 100%. For the same compound, the Efficacy against fleas (fleas; 30 days after treatment) was 94.4%, the Efficacy against fleas (fleas; 37 days after treatment) was 63.4% and the Efficacy against fleas (fleas; 44 days after treatment) was 55.9%. The Efficacy against fleas (fleas; 51 days after treatment) was 74.7%, the “% Efficacy against fleas” value (Ctenocephalides felis; Day 1, 10 mg/kg) was 97.96% and the “% Efficacy against fleas” value (Ctenocephalides felis; Day 15, 10 mg/kg) was 100%. The “% Efficacy against fleas” value (Ctenocephalides felis; Day 22, 10 mg/kg) was 100%, the “% Efficacy against fleas” value (Ctenocephalides felis; Day 29, 10 mg/kg) was 95.59% and the “% Efficacy against fleas” value (Ctenocephalides felis; Day 36, 10 mg/kg) was 99.24%. For the same compound, the “% Efficacy against fleas” value (Ctenocephalides felis; Day 43, 10 mg/kg) was 97.81%, the “Synergistic Ratio (EC50)” value ([2]; 6 hour Eval) was 14.7 and the “Synergistic Ratio (EC90)” value ([2]; 6 hour Eval) was over 6.76. For the same compound, the “Synergistic Ratio (EC50)” value ([2]; 24 hour Eval) was 156.8, the “Synergistic Ratio (EC90)” value ([2]; 24 hour Eval) was over 156 and the “Synergistic Ratio (EC50)” value ([2]; 48 hour Eval) was 56.4. The “Synergistic Ratio (EC90)” value ([2]; 48 hour Eval) was 32.3, the mortality at 0.0016 ppm [2, 3] was 0% and the mortality at 0.006 ppm [2, 3] was 0%. The mortality at 0.025 ppm [2, 3] was 0%, the mortality at 0.1 ppm [2, 3] was 0% and the mortality at 0.4 ppm [2, 3] was 0%. The mortality at 1.6 ppm [2, 3] was 0%, the mortality at 6.25 ppm [2, 3] was 0% and the mortality at 25 ppm [2, 3] was 40%. It also gave a mortality at 0.0016 ppm [2, 4] of 0%, a mortality at 0.006 ppm [2, 4] of 0% and a mortality at 0.025 ppm [2, 4] of 0%. It also gave a mortality at 0.1 ppm [2, 4] of 0%, a mortality at 0.4 ppm [2, 4] of 0% and a mortality at 1.6 ppm [2, 4] of 0%. For the same compound, the mortality at 6.25 ppm [2, 4] was 20%, the mortality at 25 ppm [2, 4] was 60% and the mortality at 0.0016 ppm [2, 5] was 0%. The mortality at 0.006 ppm [2, 5] was 0%, the mortality at 0.025 ppm [2, 5] was 0% and the mortality at 0.1 ppm [2, 5] was 0%. It also gave a mortality at 0.4 ppm [2, 5] of 0%, a mortality at 1.6 ppm [2, 5] of 0% and a mortality at 6.25 ppm [2, 5] of 10%. It also gave a mortality at 25 ppm [2, 5] of 50%, a mortality at 0.0016 ppm [2, 6] of 0% and a mortality at 0.006 ppm [2, 6] of 0%. For the same compound, the mortality at 0.025 ppm [2, 6] was 0%, the mortality at 0.1 ppm [2, 6] was 0% and the mortality at 0.4 ppm [2, 6] was 0%. It also gave a mortality at 6.25 ppm [2, 6] of 90%, a mortality at 25 ppm [2, 6] of 80% and a mortality at 0.0016 ppm [2, 7] of 0%. For the same compound, the mortality at 0.006 ppm [2, 7] was 0%, the mortality at 0.025 ppm [2, 7] was 0% and the mortality at 0.1 ppm [2, 7] was 0%. It also gave a mortality at 0.4 ppm [2, 7] of 0%, a mortality at 1.6 ppm [2, 7] of 40% and a mortality at 6.25 ppm [2, 7] of 50%. The mortality at 25 ppm [2, 7] was 90%, the mortality at 0.0016 ppm [2, 8] was 0% and the mortality at 0.006 ppm [2, 8] was 0%. For the same compound, the mortality at 0.025 ppm [2, 8] was 0%, the mortality at 0.1 ppm [2, 8] was 0% and the mortality at 0.4 ppm [2, 8] was 0%. The mortality at 1.6 ppm [2, 8] was 30%, the mortality at 6.25 ppm [2, 8] was 70% and the mortality at 25 ppm [2, 8] was 85%. For the same compound, the mortality at 0.0016 ppm [2, 9] was 0%, the mortality at 0.006 ppm [2, 9] was 0% and the mortality at 0.025 ppm [2, 9] was 0%. It also gave a mortality at 0.1 ppm [2, 9] of 0%, a mortality at 0.4 ppm [2, 9] of 20% and a mortality at 1.6 ppm [2, 9] of 50%. For the same compound, the mortality at 6.25 ppm [2, 9] was 100%, the mortality at 25 ppm [2, 9] was 100% and the mortality at 0.0016 ppm [2, 10] was 0%. It also gave a mortality at 0.006 ppm [2, 10] of 0%, a mortality at 0.025 ppm [2, 10] of 0% and a mortality at 0.1 ppm [2, 10] of 0%. The mortality at 0.4 ppm [2, 10] was 20%, the mortality at 1.6 ppm [2, 10] was 60% and the mortality at 6.25 ppm [2, 10] was 100%. It also gave a mortality at 25 ppm [2, 10] of 100%, a mortality at 0.0016 ppm [2, 11] of 0% and a mortality at 0.006 ppm [2, 11] of 0%. For the same compound, the mortality at 0.025 ppm [2, 11] was 0%, the mortality at 0.1 ppm [2, 11] was 0% and the mortality at 0.4 ppm [2, 11] was 20%. It also gave a mortality at 1.6 ppm [2, 11] of 55%, a mortality at 6.25 ppm [2, 11] of 100% and a mortality at 25 ppm [2, 11] of 100%. For the same compound, the Efficacy against ticks (ticks; 2 days after treatment) was 90.9%, the Efficacy against ticks (ticks; 16 days after treatment) was 100% and the Efficacy against ticks (ticks; 23 days after treatment) was 99.3%. It also gave an Efficacy against ticks (ticks; 30 days after treatment) of 53.9%, an Efficacy against ticks (ticks; 37 days after treatment) of 43.9% and an Efficacy against ticks (ticks; 44 days after treatment) of 37.9%.
